Values of other authors in patent US20100055036A1, “PET VISUALIZATION OF AMYLOID-ASSOCIATED NEUROINFLAMMATION IN THE BRAIN” (National Institute of Radiolotgical Sciences, priority 2007, published 2010).

System: amyloid plaque lesions in mouse brain
Details: mice developing abundant plaque lesions vs WT

Compound: [11CH3]Nc1ccc(-c2nc3ccc(O)cc3s2)cc1 [[^11C]6-OH-BTA-1, N-[^11C]methyl-2-(4′-methylaminophenyl)-6-hydroxybenzothiazole]
- PET data in brains of plaque-bearing mice compared with wild-type mouse brains: virtually indistinguishable
